We go through 2 compounds from US20240093168A1, “TRANS[…] IN CELLS OF ORGANISM INCLUDING HUMAN, T[…], AND TOOL FOR PURIFYING COMPLEX THEREOF” (KAWASAKI GAKUEN EDUCATIONAL FOUNDATION, priority 2021, published 2024).

Structures are written as SMILES.

This assay has as its target T1, HMG-CoA (Homo sapiens, UniProt P04035).
T1 sequence (P04035 426-888 limits assumed): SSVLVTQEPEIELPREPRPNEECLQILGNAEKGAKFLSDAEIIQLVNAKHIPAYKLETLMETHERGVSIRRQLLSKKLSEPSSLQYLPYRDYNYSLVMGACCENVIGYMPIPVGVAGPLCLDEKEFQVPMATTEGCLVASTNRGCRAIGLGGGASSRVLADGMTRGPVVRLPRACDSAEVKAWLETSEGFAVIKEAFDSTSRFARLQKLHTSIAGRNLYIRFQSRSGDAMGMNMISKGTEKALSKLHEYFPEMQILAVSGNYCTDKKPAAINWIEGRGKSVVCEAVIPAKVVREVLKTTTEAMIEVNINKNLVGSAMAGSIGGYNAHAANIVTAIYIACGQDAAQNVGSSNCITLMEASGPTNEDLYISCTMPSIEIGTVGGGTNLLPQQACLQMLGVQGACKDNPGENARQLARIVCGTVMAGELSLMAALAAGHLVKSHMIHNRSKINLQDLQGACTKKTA
The conditions noted are these: FIG. 17; S565 hydrogen bond.

`CC(C)c1c(C(=O)Nc2ccccc2)c(-c2ccccc2)c(-c2ccc(F)cc2)n1CC[C@@H](O)C[C@@H](O)CC(=O)O` [atorvastatin]: the “binding sites when binding to HMG-CoA” value is listed as “many binding sites (S565)”.

In the case of `CC(C)c1nc(N(C)S(C)(=O)=O)nc(-c2ccc(F)cc2)c1/C=C/[C@@H](O)C[C@@H](O)CC(=O)O` [rosuvastatin], the “binding sites when binding to HMG-CoA” value was “many binding sites (S565)”.
